Test system: P23H opsin
Experiment: Rhodopsin purification and regeneration (P23H cells treated with compound, regenerated with 9-cis-retinal, 480-500 nm absorbance)
Conditions: FIG. 1; P23H opsin treated with 20 μM during mutant protein production, relative to vehicle (DMSO) alone

SMILES: CC(=O)/C=C/C1=C(C)CCCC1(C)C [β-ionone, reference compound]
- regeneration of 500 nm absorbing pigment upon treatment with retinal: increase

Source: patent publication US9457004B2, “Opsin-binding ligands, compositions and methods of use” (priority 2011, dated 2016)
